Results: ChEMBL document CHEMBL4825705, “Iridoid Constituents of Viburnum brachybotryum” (J Nat Prod, 2021)
Where a name gives a salt, the structure may show the parent alone.

system: HCT-116; assay: Cytotoxicity against human HCT-116 cells assessed as cell growth inhibition measured after 48 hrs by MTT assay; type: functional, cell-based; conditions: HCT-116, 48 h

C=C1[C@H]2O[C@@H](OC(=O)/C=C(/C)COC(C)=O)[C@H]3[C@@H]1CC(=O)[C@@]3(CCl)O2 and C=C1[C@H]2O[C@@H](OC(=O)/C=C(/C)COC(C)=O)[C@H]3[C@@H]1CC(=O)[C@@]3(CO)O2 are within 1.5-fold of each other in IC50: 5.2 µM for the first, 4.9 µM for the second.

In the case of COc1cccc2c1C(=O)c1c(O)c3c(c(O)c1C2=O)C[C@@](O)(C(=O)CO)C[C@@H]3O[C@H]1C[C@H](N)[C@H](O)[C@H](C)O1 [DOXORUBICIN HYDROCHLORIDE], the IC50 is reported as 0.16 µM.
